Measurements: patent publication US8324190B2, “Treatment of proliferative disorders with amino-substituted (E)-2,6- dialkoxystyryl 4-substituted benzylsulfones” (Temple University—Of The Commonwealth System of Higher …, priority 2002, dated 2012)

Tests used:
Experiment in all cases: Tumor cell viability assay, Trypan blue exclusion
Format in all cases: cell-based
Details in all cases: cell viability after 96 hours
[1] = system: breast adenocarcinoma cell line BT-20
Method: (§1) BT-20 is an estrogen-unresponsive cell line. NIH/3T3 and HFL are normal murine and human fibroblasts, respectively. BT-20, DLD-1 and H157 were grown in Dulbecco's modified Eagle's medium (DMEM) containing 10% fetal bovine serum supplemented with penicillin and streptomycin. DU145 was cultured in RPMI with 10% fetal bovine serum containing penicillin and streptomycin. NIH3T3 and HFL cells were grown in DMEM containing 10% calf serum supplemented with penicillin and streptomycin. Cells were plated at density levels of 1.0×10^5 cells per well in six-well plates. Cell cultures were maintained at 37° C. in a humidified atmosphere of 5% CO2. Cells were treated with compounds of the invention at various concentrations. Cell viability was determined after 96 hours by the Trypan blue exclusion method. […] The number of viable cells remaining after 96 hours of treatment was determined using hemacytometer following trypan blue staining. The number of viable cells has been plotted as the percent of Vehicle treated (control) cells.

[2] = system: non-small cell lung carcinoma cell line H157
Method: as §1

[3] = system: prostate carcinoma cell line DU-145
Method: as §1

[4] = system: colorectal carcinoma cell line DLD-1
Method: as §1

Measured: IC50

COc1cc(OC)c(/C=C/S(=O)(=O)Cc2ccc(OC)c(S(=O)(=O)NCC(=O)O)c2)c(OC)c1 [Example 1, (E)-2,4,6-Trimethoxystyryl-3-(carboxymethylsulfamyl)-4-methoxybenzylsulfone]
< 10 µM: all assays above

COc1cc(OC)c(/C=C/S(=O)(=O)Cc2ccc(OC)c(NC(=O)CC(=O)O)c2)c(OC)c1 [Example 2, (E)-2,4,6-Trimethoxystyryl-3-(carboxyacetamido)-4-methoxy-benzylsulfone]
< 10 µM: all assays above

COc1cc(OC)c(/C=C/S(=O)(=O)Cc2ccc(OC)c(NC(=N)N)c2)c(OC)c1 [Example 3, (E)-2,4,6-Trimethoxystyryl-3-(guanidino)-4-methoxybenzyl-sulfone]
< 10 µM: all assays above

COc1cc(OC)c(/C=C/S(=O)(=O)Cc2ccc(OC)c(NCC(=O)O)c2)c(OC)c1 [Example 4, (E)-2,4,6-Trimethoxystyryl-3-(carboxymethylamino)-4-methoxy-benzylsulfone]
< 10 µM: all assays above

COc1cc(OC)c(/C=C/S(=O)(=O)Cc2ccc(OC)c(NC(=O)c3cc([N+](=O)[O-])cc([N+](=O)[O-])c3)c2)c(OC)c1 [Example 5, (E)-2,4,6-trimethoxystyryl-3-(3,5,dinitrobenzamido)-4-methoxy-benzylsulfone]
< 10 µM: all assays above

COc1cc(OC)c(/C=C/S(=O)(=O)Cc2ccc(OC)c(NC(=O)c3cc(N)cc(N)c3)c2)c(OC)c1 [Example 6, (E)-2,4,6-trimethoxystyryl-3-(3,5,diaminobenzamido)-4-methoxy-benzylsulfone]
< 10 µM: all assays above

COc1cc(OC)c(/C=C/S(=O)(=O)Cc2ccc(OC)c(NC(=O)CCl)c2)c(OC)c1 [Example 7, (E)-2,4,6-Trimethoxystyryl-3-(chloroacetamido)-4-methoxybenzyl-sulfone]
< 10 µM: all assays above

COc1cc(OC)c(/C=C/S(=O)(=O)Cc2ccc(OC)c(NC(=O)CN3CCN(C)CC3)c2)c(OC)c1 [Example 8]
< 10 µM: all assays above

COc1cc(OC)c(/C=C/S(=O)(=O)Cc2ccc(OC)c(NC(=O)c3ccccc3)c2)c(OC)c1 [Example 9, (E)-2,4,6-Trimethoxystyryl-3-(benzamido)-4-methoxybenzyl-sulfone]
< 10 µM: all assays above

COc1cc(OC)c(/C=C/S(=O)(=O)Cc2ccc(OC)c(NC(=O)c3ccc([N+](=O)[O-])cc3)c2)c(OC)c1 [Example 10, (E)-2,4,6-Trimethoxystyryl-3-(4-nitrobenzamido)-4-methoxy-benzylsulfone]
< 10 µM: all assays above

COc1cc(OC)c(/C=C/S(=O)(=O)Cc2ccc(OC)c(NC(N)=O)c2)c(OC)c1 [Example 16, (E)-2,4,6-Trimethoxystyryl-3-(ureido)-4-methoxybenzylsulfone]
< 10 µM: all assays above

CNc1cc(CS(=O)(=O)/C=C/c2c(OC)cc(OC)cc2OC)ccc1OC [Example 17, (E)-2,4,6-Trimethoxystyryl-3-(N-methylamino)-4-methoxybenzyl-sulfone]
< 10 µM: all assays above

COc1cc(OC)c(/C=C/S(=O)(=O)Cc2ccc(OC)c(NC(C)=O)c2)c(OC)c1 [Example 18, (E)-2,4,6-Trimethoxystyryl-3-(acetamido)-4-methoxybenzyl-sulfone]
< 10 µM: all assays above

COc1cc(OC)c(/C=C/S(=O)(=O)Cc2ccc(OC)c(NS(=O)(=O)c3ccc([N+](=O)[O-])cc3[N+](=O)[O-])c2)c(OC)c1 [Example 19, (E)-2,4,6-Trimethoxystyryl-3-(2,4-dinitrobenzenesulfamyl)-4-methoxybenzylsulfone]
< 10 µM: all assays above

COc1cc(OC)c(/C=C/S(=O)(=O)Cc2ccc(OC)c(NS(=O)(=O)c3ccc(N)cc3N)c2)c(OC)c1 [Example 20, (E)-2,4,6-Trimethoxystyryl-3-(2,4-diaminobenzenesulfamyl)-4-methoxybenzylsulfone]
< 10 µM: all assays above

COc1cc(OC)c(/C=C/S(=O)(=O)Cc2ccc(OC)c(NC(=O)CN(C)C)c2)c(OC)c1 [Example 21, (E)-2,4,6-trimethoxystyryl-3-(dimethylaminoacetamido)-4-methoxybenzylsulfone]
< 10 µM: all assays above

COc1cc(OC)c(/C=C/S(=O)(=O)Cc2ccc(OC)c(NC(C)C(=O)O)c2)c(OC)c1 (stereo not shown) [Example 22, (E)-2,4,6-trimethoxystyryl-3-[(1-carboxyethyl)amino]-4-methoxybenzylsulfone]
< 10 µM: all assays above

COc1cc(OC)c(/C=C/S(=O)(=O)Cc2ccc(OC)c(NC(=O)c3ccc(N4CCN(C)CC4)cc3)c2)c(OC)c1 [Example 23, (E)-2,4,6-trimethoxystyryl-3-[4-(4-methylpiperazin-1-yl)-benzamido]-4-methoxybenzylsulfone]
< 10 µM: all assays above

COc1cc(OC)c(/C=C/S(=O)(=O)Cc2ccc(OC)c(NC(=O)CO)c2)c(OC)c1 [Example 24, (E)-2,4,6-trimethoxystyryl-3-(hydroxyacetamido)-4-methoxy-benzylsulfone]
< 10 µM: all assays above
